The record followed here is patent US12508280B2, “Formulations for improving gut health” (DSM IP ASSETS B.V., priority 2018, dated 2025).

One test has as its system Bifidobacterium. Kind of test: Microbiome composition by shotgun sequencing: Bifidobacterium (first set). It counts as cell-based, human. Conditions: after 24 h fermentation, vs corresponding control. The protocol:
(§1) Since ethanol is known to have antimicrobial effects, two blanks for each type of stock solution were included. As a source of the microbial community, a freshly prepared fecal suspension from the selected donor was added to the reactors. […] All tests, except the blanks, were performed in single repetition, resulting in 40 independent incubations, as specified in Table 1. Incubation conditions of the pre-screening experiment and the final experiment were 48 h at 37° C., under shaking (90 rpm) and anaerobic conditions. DNA were extracted from effluent samples collected from each fermentation flask before (0 h fermentation) and after fermentation (24 h fermentation) and use for microbiome composition analysis by Shotgun sequencing. Effluent samples were collected from each fermentation flask before (0 h fermentation) and after fermentation (48 h fermentation), sterilized by filtering through 0.22 μm filters and used for short chain fatty acids (SCFA), quantification of immunological biomarkers and in vitro analysis in cell culture systems.
(§2) For the first set of in vitro experiments, total DNA was extracted from all samples collected throughout the study using the QIAamp DNA stool minikit (Qiagen, Crawley, United Kingdom) according to the manufacturer's instructions, apart from addition of a bead-beating step and increasing the lysis temperature to 95° C. as described previously (McCormack et al., 2018).
(§3) After DNA isolation, DNA was quantified using the Qubit High Sensitivity DNA assay (Thermo Fisher). Whole metagenome libraries were then prepared using the Illumina Nextera XT kit (Illumina) in accordance with the manufacturer's instructions, with the following modifications: Firstly, tagmentation time was increased to 7 min and secondly, following incorporation of indices and Ampure purification of the products, the samples were each individually sized by running on an Agilent High Sensitivity Chip (Agilent) and quantified using the Qubit High Sensitivity DNA assay (Thermo Fisher) in accordance with Teagasc Sequencing Platform SOPs. The samples were then pooled equimolarly and sequenced on the Illumina NextSeq 500 with a NextSeq 500/550 v2 high-output reagent kit (300 cycles). All sequencing was done in the Teagasc sequencing facility in accordance with standard Illumina sequencing protocols.
(§4) Delivered raw FASTQ sequence files were quality checked as follows: poor quality and duplicate read removal, as well as trimming was implemented using a combination of SAM and Picard tools. Taxonomy was assigned to the reads using the Kraken software and functional analysis was performed with Super focus.

The next test deals with HT29 cells. Nature of the test: HT29 cell culture, quantification of immunological biomarkers. It counts as cell-based. Conditions: 5× dose; effluent from 24 h fermentation; vs corresponding control. The protocol: as §1, with “([…]), […]” for “(0 h fermentation) and after fermentation (48 h fermentation), sterilized by filtering through 0.22 μm filters and used for short chain fatty acids (SCFA), quantification of immunological biomarkers and in vitro analysis in”
For both sets of in vitro experiments, HT29 cells were obtained from American Type Culture Collection (Manassas, VA). Cells were cultured in DMEM supplemented with 10% fetal bovine serum (FBS), 50 units/ml penicillin, 50 μg/ml streptomycin, L-glutamine, and nonessential amino acids (Life Technologies Europe B.V., Zug, Switzerland). Cells were seeded into 12-well plates at 8×10^5 cells per well and used after 2 days of preculture. They were starved in DMEM containing 0.25% FBS for 18 h before treatment. Cells were treated for 24 hours with TNF-α at 100 ng/mL or fermentation supernatants which were sterile filtered and diluted 1:20 in DMEM containing 0.25% FBS. All treatments were done in triplicate. Consequently, cytokines, chemokines and interleukins were quantified in HT29 supernatants using the Luminex Technology (LiquiChip Workstation IS 200, Qiagen, Hilden, Germany) with Bio-Plex Pro Human Cytokine Panel kits (Bio-Rad, Hercules, CA) or with Luminex Screening Assay kits (R&D Systems, Inc., Minneapolis, MN), following the manufacturer's instructions. The data were acquired with the Luminex IS 2.3 software and evaluated with the LiquiChip Analyser software (Qiagen, Hilden, Germany).

Test [1] relates to fecal suspension from the selected donor. Nature of the test: Intestinal batch fermentation, SCFA production (first set). It counts as cell-based, human. The conditions noted are these: 5× dose; after 48 h fermentation; vs corresponding control. The protocol: In a first set of in vitro experiments at the start of intestinal batch fermentation incubation, all test ingredients were added from stock solutions to the modified nutritional medium, containing (g/l): 2.5 K2HPO4, 10.9 KH2PO4, 2 NaHCO3, 2 yeast extract, 2 peptone, 1 mucin, 0.5 cysteine, 2 Tween 80, 2 glucose, 2 starch, 2 cellobiose, 0.1 NaCl, 0.01 MgSO4·7H2O, 0.01 CaCl2·6H2O, 0.05 hemin, 0.5 bile salts.
The other compounds were prepared in ethanol: • Vitamin K1 (VK1), • MEG-3 0080 EE Oil (MEG-3 0080 EE), • MEG-3 4535 EE Oil (MEG-3 4535 EE), • MEG-3 8000 EE Oil (MEG-3 8000 EE).
as §1
Short chain fatty acids (SCFA) are an assessment of the microbial carbohydrate metabolism (acetate, propionate and butyrate) or protein metabolism (branched SCFA) and can be compared to typical fermentation patterns for normal GI microbiota. Samples for SCFA analysis were analyzed after 0, 6, 24 and 48 h of incubation for both set of in vitro experiments, above.
SCFA were extracted from the samples with diethyl ether, after the addition of 2-methyl hexanoic acid as an internal standard. Extracts were analysed using a GC-2014 gas chromatograph (Shimadzu's-Hertogenbosch, the Nether-lands), equipped with a capillary fatty acid-free EC-1000Econo-Cap column (dimensions: […]×0.53 mm, film thickness […]; Alltech, Laarne, Belgium), a flame ionization detector and a split injector. The injection volume was […] and the temperature profile was set from 110 to 160° C., with a temperature increase of 6° C. min-1. The carrier gas was nitrogen and the temperature of the injector and detector were […] and 220° C., respectively. The production of unbranched and branched SCFA was calculated by summing the molar concentrations of acetate, propionate, butyrate, valerate and caproate, and summing isobutyrate, isovalerate and isocaproate molar concentrations, respectively. The total SCFA production was defined as the sum of unbranched and branched SCFA.

Test [2] relates to Co-cultures of Caco-2 and HT29-MTX-E12 cells. Nature of the test: Barrier integrity, leaky gut model, apical stressor Rhamnolipids. Format: cell-based. Conditions: vs corresponding control; for Lucifer yellow, apical induction of leaky gut cellular model: 48 h fermentation samples; for TEER, apical induction of leaky gut cellular model: 48 h minus 0 h fermentation samples.
Procedure: Since ethanol is known to have antimicrobial effects, two blanks for each type of stock solution were included. As a source of the microbial community, a freshly prepared fecal suspension from the selected donor was added to the reactors. […] All tests, except the blanks, were performed in single repetition, resulting in 40 independent incubations, as specified in Table 1. Incubation conditions of the pre-screening experiment and the final experiment were 48 h at 37° C., under shaking (90 rpm) and anaerobic conditions. […] Effluent samples were collected from each fermentation flask before (0 h fermentation) and after fermentation (48 h fermentation), sterilized by filtering through 0.22 μm filters and used for short chain fatty acids (SCFA), quantification of immunological biomarkers and in vitro analysis in cell culture systems.
(§5) Co-cultures of Caco-2 and HT29-MTX-E12 cells were used to assess the protective effect of the supernatants before (0 h) and after fermentation (48 h) for both sets of in vitro experiments above.
(§6) CaCo-2 ECACC 86010202 and HT29-MTX-E12 ECACC 12040401 cells (both from European Collection of Cell Cultures, Salisbury, UK) were both cultured at 37° C., in atmosphere of 5% CO2 in DMEM medium supplemented with 4.5 g/L D-Glucose, 4 mM L-Glutamine, 1 mM Sodium Pyruvate, 1% MEM Non-Essential Amino Acids, 50 μg/mL Gentamicin (Life Technologies Europe B.V., Zug, Switzerland) and 10% heat-inactivated FBS (Sigma-Aldrich, Buchs, Switzerland). Sub-confluent cells were trypsinized using 0.25% Trypsin/EDTA (Life Technologies Europe B.V., Zug, Switzerland) and passaged at a ratio of 1:5-1:10 twice a week. Cells between passages 55 and 85 were used for this study.
(§7) Cells were seeded at a density of 20000 cells/well in a 7:3 ratio (Caco-2:HT29-MTX-E12) in Corning HTS Transwell-24 system PET membranes, 0.4 μM pore size, cell growth area 0.33 cm2/well (Corning BV, Amsterdam, Netherlands) and cultured as described above. Media was changed every second to third day.
For both sets of in vitro experiments, the integrity of cell monolayers after the stressor test was evaluated by both TEER values and by measuring the transport of Lucifer yellow from apical to basolateral compartments (Leaky gut model). A prewarmed HBSS transport buffer composed of Hank's Balanced Salt Solution pH 7.4 with Ca2+ and Mg2+, containing 5.5 mM D-(+)-glucose, Sodium Bicarbonate, and supplemented with 4 mM L-glutamine, 20 mM HEPES (Life Technologies Europe B.V., Zug, Switzerland) was used for all permeability experiments. The inserts were rinsed twice with HBSS using a reservoir tray, 100 μl HBSS were then added to the apical site of the inserts and subsequently moved to new wells with fresh HBSS and allowed to equilibrate at 37° C. for 60 min in the incubator followed by TEER measurement to obtain baseline resistance readings.
Lucifer Yellow CH dilithium salt (Sigma-Aldrich, Buchs, Switzerland) was dissolved in HBSS at a final concentration of 100 μg/ml. Basolateral stressor EtOH (Merck, KgaA, Darmstadt, Germany) was diluted to 5% in HBSS. Apical Stressor Rhamnolipids R90 (AGAE Technologies, Corvallis, USA) was dissolved in HBSS containing Lucifer Yellow at a final concentration of 350 μg/ml. All solutions were prepared freshly each time.
The HBSS transport buffer from the basolateral chamber was aspirated first, then the HBSS from the apical chamber and replaced with Lucifer yellow solution. For the apical stressor test, Lucifer yellow solution containing 350 μg/ml Rhamnolipids or Lucifer yellow solution without stressor for the control wells was loaded into the apical compartment, blank HBSS was subsequently added to the basolateral chamber.
Test [3] has the same test system. Kind of test: Barrier integrity (TEER), healthy gut model. Format: cell-based. The conditions noted are these: 48 h minus 0 h fermentation samples, vs corresponding control.
Procedure: as §5, §6, §7
For both sets of in vitro experiments, after cells being 13 days in culture, initial transepithelial electrical resistance (TEER) readings were obtained using an EVOM2 Voltohmmeter (EVOM, World Precision Instruments, Berlin) equipped with STX100 Electrodes. TEER values correlate with the tightness of the confluent monolayer (Srinivasan et al. 2015).
The background TEER (insert) was subtracted from total TEER (cell monolayer plus insert) to yield the monolayer resistance and then normalized to surface area by multiplying with the area of the insert (Srinivasan et al. 2015). The integrity of the monolayer was determined at basal level by measuring TEER. A TEER of 300 Ωcm2 was regarded as a tight monolayer (see results section). Afterwards, the cells were treated with sterile filtered fermentation supernatants or fermentation medium as a control (diluted 1:20 in growth media). After 24 h incubation the resistance across each cell monolayer was measured again and the percentage change in TEER compared to initial TEER for each insert was calculated to represent a healthy gut model. All TEER measurements were done by placing the plates containing the inserts on a 37° C. warming plate and were performed in the same duration.
The subject of test [4] is genes involved in Acetyl-CoA fermentation to Butyrate pathway. Nature of the test: Shotgun sequencing functional analysis: butyrate pathway genes (first set). Format: cell-based, human. The conditions noted are these: after 24 h fermentation, vs corresponding control. How it is done:
as §1, §2, §3, §4

The test system of test [5] is fecal microbial community. Kind of test: Microbiome composition by shotgun sequencing: alpha diversity (first set). Format: cell-based, human. Conditions: after 24 h fermentation, vs corresponding control. The protocol: as §1, §2, §3, §4
The subject of test [6] is fecal suspension from the selected donor. Nature of the test: Gas production in closed colon incubations (first set). It counts as cell-based, human. The conditions noted are these: after 48 h fermentation, vs corresponding control. The protocol:
The colon incubations were performed in closed incubation systems. This allowed us to evaluate the accumulation of gasses in the headspace, which can be measured with a pressure meter. Gas production is a measure of microbial activity, and thus of the speed of fermentation of the potentially prebiotic substrates. It can be used as an indication for bloating and digestive wellbeing upon prebiotic consumption.
as §1
For both sets of in vitro experiments, colon incubations were performed in closed incubation systems as described above. This allowed to evaluate the accumulation of gasses in the headspace, which can be measured with a pressure meter. Gas production is a measure of microbial activity, and thus of the speed of fermentation of the potentially prebiotic substrates

As for `Cc1cc2nc3c(=O)[nH]c(=O)nc-3n(C[C@H](O)[C@H](O)[C@H](O)COP(=O)(O)O)c2cc1C` [Vitamin B2-5-phosphate, Riboflavin-5-phosphate], the Bifidobacterium relative abundance result in the test on Bifidobacterium (0.2× dose) and in the test on Bifidobacterium (1× dose) was “increase Bifidobacterium relative abundance” throughout. The “IL-8 production by HT29 cells” value with HT29 cells was “increase IL-8 production”. Further, the butyrate production entry in test [1] was “increase butyrate production”. Further, in test [2] (0.2× dose), the “Lucifer yellow, apical induction of leaky gut cellular model” value is on record as “decrease Lucifer yellow”. Further, the “TEER, apical induction of leaky gut cellular model” value in test [2] (0.2× dose) was “increase TEER”. Moreover, in test [3] (0.2× dose), the “TEER, healthy gut cellular model” value is given as “increase TEER”. Also, the “relative abundance of genes involved in Acetyl-CoA fermentation to Butyrate pathway” value in test [4] (0.2× dose) and in test [4] (1× dose) was “increase relative abundance” each time. The “microbiome alpha diversity (Shannon diversity index)” value in test [5] (0.2× dose) and in test [5] (1× dose) was “increase microbiome diversity” in each case.

Regarding `O=C1O[C@H]([C@@H](O)CO)C(O)=C1O` [Vitamin C, Ascorbic acid], the gas production entry in test [6] (1× dose) and in test [6] (5× dose) was “reduced gas production” each time. Besides, the Bifidobacterium relative abundance entry in the test on Bifidobacterium (1× dose) was “increase Bifidobacterium relative abundance”. The “Lucifer yellow, apical induction of leaky gut cellular model” value in test [2] (0.2× dose) and in test [2] (1× dose) was “decrease Lucifer yellow” each time. The “TEER, apical induction of leaky gut cellular model” value in test [2] (0.2× dose) and in test [2] (1× dose) was “increase TEER” each time. Besides, in test [3] (1× dose), the “TEER, healthy gut cellular model” value is given as “increase TEER”. The “relative abundance of genes involved in Acetyl-CoA fermentation to Butyrate pathway” value in test [4] (5× dose) is on record as “increase relative abundance”. Further, the “microbiome alpha diversity (Shannon diversity index)” value in test [5] (5× dose) is “increase microbiome diversity”.
